According to US9353152B2, “Induction of the mitochondrial permeability transition” (NewSouth Innovations Pty Limited, priority 2002, dated 2016):

Tested on: CAM angiogenesis
Assay: Chick chorioallantoic membrane (CAM) angiogenesis assay
Type: in vivo
Conditions: 5, 10 or 50 μg per pellet, 48 h
Procedure: Fertilised 3 day-old white Leghorn eggs (Spafas, Norwich, Conn.) were cracked, the embryos with intact yolks placed in 20×100 mm petri dishes and incubated for 3 days at 37° C. and 3% CO2 (Folkman, 1985). Methylcellulose (Fisher Scientific, Fair Lawn, N.J.) discs containing 5, 10 or 50 μg of either GSAA or GSAO were then applied to the CAM of individual embryos and incubated for 48 h at 37° C. and 3% CO2. The discs were made by desiccation of GSAA or GSAO in 10 μl of 0.45% methycellulose on teflon rods. The CAMs were observed using a stereomicroscope and scored for no obvious affect or inhibition of CAM angiogenesis as defined by avascular zones. On some occasions CAM blood vessels were injected with India ink and photographed.

Structure (SMILES): N[C@@H](CCC(=O)N[C@@H](CSCC(=O)Nc1ccc([As]=O)cc1)C(=O)NCC(=O)O)C(=O)O (stereo partly shown) [GSAO, 4-(N—(S-glutathionylacetyl)amino)-phenylarsenoxide]
- inhibition of CAM angiogenesis (avascular zones): inhibited CAM angiogenesis in a concentration-dependent manner
